These results are taken from EP1581477B1, “CYCLOALKENE DICARBOXYLIC ACID COMPOUNDS AS ANTI-INFLAMMATORY, IMMUNOMODULATORY AND ANTI-PROLIFERATORY AGENTS” (4SC AG, priority 2002, dated 2004).

Bounds are passed on as bounds.

This assay has as its target T1, human DHODH (Homo sapiens, UniProt Q02127).
T1 construct: Prof; M. Löffler, Marburg, Germany (gift)
Description: Inhibition assay of DHODH activity (spectrophotometric, 2,6-dichloroindophenol reduction). The class given is biochemical. The conditions noted are these: recombinant human DHODH; 50 mM TrisHCl, pH 8,0, 30°C; absorption at 600 nm. As for the experimental part:
3. Inhibition Assay of DHODH activity
The standard assay mixture contained 50 µM decyclo ubichinone, 100 µM dihydroorotate, 60 µM 2,6-dichloroindophenol, as well as 20 mU DHODH The volume activity of the recombinant enzyme used was 30 U/ml. Measurements were conducted in 50 mM TrisHCl (150 mM KCI, 0,1% Triton X-100, pH 8,0) at 30°C in a final volume of 1 ml. The components were mixed, and the reaction was started by adding dihydroorotate. The course of reaction was followed by spectrophotometrically measuring the decrease in absorption at 600 nm for 2 min.
Inhibitory studies were conducted in a standard assay with additional variable amounts of inhibitor.
These investigations were carried out with recombinant human as well as with recombinant murine DHODH provided by Prof. M. Löffler, Marburg, Germany [M. Löffler, Chem. Biol. Interact. 124, (2000), 61-76].

T1 sequence (Q02127 whole entry): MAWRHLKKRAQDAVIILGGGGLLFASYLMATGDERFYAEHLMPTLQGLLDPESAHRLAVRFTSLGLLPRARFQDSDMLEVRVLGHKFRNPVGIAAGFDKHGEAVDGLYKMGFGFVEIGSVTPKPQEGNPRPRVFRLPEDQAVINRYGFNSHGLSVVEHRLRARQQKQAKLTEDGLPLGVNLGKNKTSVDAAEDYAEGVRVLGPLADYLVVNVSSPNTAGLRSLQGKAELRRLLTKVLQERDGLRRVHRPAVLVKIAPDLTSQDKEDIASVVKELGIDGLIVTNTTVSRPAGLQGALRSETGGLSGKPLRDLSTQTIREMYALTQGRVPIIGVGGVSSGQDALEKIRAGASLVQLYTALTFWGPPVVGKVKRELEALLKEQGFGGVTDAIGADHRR

As usually defined, the IC50 is the concentration that gives 50% inhibition. Take `CCOc1cccc(-c2cc(F)c(NC(=O)C3=C(C(=O)O)C(O)CC3)c(F)c2)c1` (stereo not drawn) [Example 8, 2-(3'-Ethoxy-3,5-difluoro-biphenyl-4-ylcarbamoyl)-5-hydroxy-cyclopent-1-enecarboxylic acid]: the IC50 was less than 1 µM.

`COc1cccc(-c2ccc(NC(=O)C3=C(C(=O)O)CCC3O)c(F)c2)c1` (stereo not drawn) [Example 17, 2-(3-Fluoro-3'-methoxy-biphenyl-4-ylcarbamoyl)-3-hydroxy-cyclopent-1-enecarboxylic acid]: the IC50 was less than 1 µM.

As for `CCOc1cccc(-c2cc(F)c(NC(=O)C3=C(C(=O)O)CCC3O)c(F)c2)c1` (stereo not drawn) [Example 7, 2-(3'-Ethoxy-3,5-difluoro-biphenyl-4-ylcarbamoyl)-3-hydroxy-cyclopent-1-enecarboxylic acid], the IC50 is less than 1 µM. For `O=C(O)C1=C(C(=O)Nc2c(F)c(F)c(-c3cccc(OC(F)(F)F)c3)c(F)c2F)C(O)CC1` (stereo not drawn) [Example 5, 3-Hydroxy-2-(2,3,5,6-tetrafluoro-3'-trifluoromethoxy-biphenyl-4-ylcarbamoyl)-cyclopent-1-enecarboxylic acid] the value was less than 1 µM; for “2-(1',3'di-methoxy-3,5-difluoro-biphenyl-4-ylcarbamoyl)-5-hydroxy-cyclopent-1-enecarboxylic acid [Example 10]”, less than 5 µM. `COc1ccccc1-c1ccc(NC(=O)C2=C(C(=O)O)C(O)CC2)cc1Cl` (stereo not drawn) [Example 14, 2-(2-Chloro-2'-methoxy-biphenyl-4-ylcarbamoyl)-5-hydroxy-cyclopent-1-enecarboxylic acid]: the IC50 is less than 1 µM. On to `COc1cccc(-c2ccc(NC(=O)C3=C(C(=O)O)CCC3C(=O)O)c(F)c2)c1` (stereo not drawn) [Example 2, 2-(3-Fluoro-3'-methoxy-biphenyl-4-ylcarbamoyl)-cyclopent-1-ene-1,3-dicarboxylic acid], for which the IC50 is greater than 5 µM.

As for `O=C(O)C1=C(C(=O)Nc2c(F)c(F)c(-c3cccc(OC(F)(F)F)c3)c(F)c2F)CCC1O` (stereo not drawn) [Example 6, 5-Hydroxy-2-(2,3,5,6-tetrafluoro-3'-trifluoromethoxy-biphenyl-4-ylcarbamoyl)-cyclopent-1-enecarboxylic acid], the IC50 is less than 1 µM.

`O=C(O)C1=C(C(=O)Nc2c(F)cc(-c3ccccc3Cl)cc2F)C(O)CC1` (stereo not drawn) [Example 15, 2-(2'-Chloro-3,5-difluoro-biphenyl-4-ylcarbamoyl)-3-hydroxy-cyclopent-1-enecarboxylic acid]: the IC50 was less than 1 µM. Take `COC(=O)C1=C(C(=O)Nc2ccc(-c3cccc(OC)c3)cc2F)CCC1` [Example 3, 2-(3-Fluoro-3'-methoxy-biphenyl-4-ylcarbamoyl)-cyclopent-1-enecarboxylic acid methyl ester]: the IC50 was greater than 5 µM. For `O=C(O)C1=C(C(=O)Nc2c(F)cc(-c3ccccc3Cl)cc2F)CCC1O` (stereo not drawn) [Example 16, 2-(2'-Chloro-3,5-difluoro-biphenyl-4-ylcarbamoyl)-5-hydroxy-cyclopent-1-enecarboxylic acid] the value was less than 1 µM. `COc1cccc(-c2ccc(NC(=O)C3=C(C(=O)O)C(C(=O)O)CC3)c(F)c2)c1` (stereo not drawn) [Example 1, 3-(3-Fluoro-3'-methoxy-biphenyl-4-ylcarbamoyl)-cyclopent-2-ene-1,2-dicarboxylic acid]: the IC50 was greater than 5 µM. Consider `O=C(O)C1=C(C(=O)Nc2c(F)cc(-c3ccccc3F)cc2F)C(O)CC1` (stereo not drawn) [Example 11, 3-Hydroxy-2-(3,5,2'-trifluoro-biphenyl-4-ylcarbamoyl)-cyclopent-1-enecarboxylic acid], for which the IC50 was less than 1 µM.

For the compound `COc1ccccc1-c1ccc(NC(=O)C2=C(C(=O)O)CCC2O)cc1Cl` (stereo not drawn) [Example 13, 2-(2-Chloro-2'-methoxy-biphenyl-4-ylcarbamoyl)-3-hydroxy-cyclopent-1-enecarboxylic acid], the IC50 was less than 1 µM.

With “2-(1',3'di-methoxy-3,5-difluoro-biphenyl-4-ylcarbamoyl)-3-hydroxy-cyclopent-1-enecarboxylic acid [Example 9]”, the IC50 is less than 5 µM.
